Reference: PubChem BioAssay AID262 (DTP/NCI, 2004)
Several values for one entry are separate records, joined by “and”; a condition that tells them apart may be missing. Identical values can stand only once.

Test system: LX-1 lung xenograft sc, nude mice, tumor weight
Test: NCI In Vivo Anticancer Drug Screen. Data for tumor model Human Lung LX-1 Xenograft (subcutaneous) in NU/NU Swiss (nude) mice
Settings: endpoint: optimum tumor weight change, schedule: Q04DX003 (ip), higher = larger tumour
Procedure: The antitumor activity of compounds was measured in mice bearing transplantable tumors. Survival or tumor size were measured and the results are expressed as the measurement made in the treated group (T) divided by the measurement made in the vehicle treated control group (C). The tumor model used in this assay is Human Lung LX-1 Xenograft (subcutaneous) in NU/NU Swiss (nude) mice

[1] = dose: 0.75 mg/kg/injection, vehicle: saline
[2] = dose: 1.5 mg/kg/injection, vehicle: saline
[3] = dose: 25.0 mg/kg/injection, vehicle: Klucel (hydroxypropylcellulose) (HPC)
[4] = dose: 50.0 mg/kg/injection, vehicle: Klucel (hydroxypropylcellulose) (HPC)

## OCC1OC(n2cnc3cncnc32)C(O)C1O (configuration not stated)
dose: 25.0 mg/kg/injection, vehicle: saline
  T/C: 83 % of control

## COC1C(O)CC(OC2CC(OC3CC(O[C@@H]4C(=O)c5c(cc6cc(OC7CC(OC8CC(O)C(O)C(C)O8)C(O)C(C)O7)c(C)c(O)c6c5O)C[C@H]4[C@H](OC)C(=O)[C@@H](O)[C@@H](C)O)OC(C)C3O)OC(C)C2O)OC1C (some centres not stated)
[1]
  T/C: 104 % of control
[2]
  T/C: 53 % of control and 62 % of control

## CCCCNCCCNCCCNC(=O)c1csc(-c2csc(CCNC(=O)C(NC(=O)C(C)C(O)C(C)NC(=O)C(NC(=O)c3nc(C(CC(N)=O)NCC(N)C(N)=O)nc(N)c3C)C(OC3OC(CO)C(O)C(O)C3OC3OC(CO)C(O)C(OC(N)=O)C3O)c3cnc[nH]3)C(C)O)n2)n1 (configuration not stated)
dose: 8.0 mg/kg/injection, vehicle: saline
  T/C: 56 % of control
dose: 15.0 mg/kg/injection, vehicle: saline
  T/C: 19 % of control
dose: 16.0 mg/kg/injection, vehicle: saline
  T/C: 30 % of control
dose: 30.0 mg/kg/injection, vehicle: saline
  T/C: 20 % of control
dose: 32.0 mg/kg/injection, vehicle: saline
  T/C: 26 % of control
dose: 64.0 mg/kg/injection, vehicle: saline
  T/C: 19 % of control
dose: 128.0 mg/kg/injection, vehicle: saline
  T/C: 1 % of control

## CC(=O)OCC1OC(n2cc(CBr)nn2)C(OC(C)=O)C(OC(C)=O)C1OC(C)=O (configuration not stated)
dose: 25.0 mg/kg/injection, vehicle: saline with Tween-80
  T/C: 169 % of control
dose: 50.0 mg/kg/injection, vehicle: saline with Tween-80
  T/C: 61 % of control
dose: 100.0 mg/kg/injection, vehicle: saline with Tween-80
  T/C: 107 % of control
dose: 200.0 mg/kg/injection, vehicle: saline with Tween-80
  T/C: 110 % of control

## O=[N+]([O-])/C=C\c1ccc2c(c1)OCO2
dose: 12.5 mg/kg/injection, vehicle: Klucel (hydroxypropylcellulose) (HPC)
  T/C: 89 % of control
[3]
  T/C: 63 % of control and 88 % of control
[4]
  T/C: 64 % of control and 73 % of control
dose: 100.0 mg/kg/injection, vehicle: Klucel (hydroxypropylcellulose) (HPC)
  T/C: 103 % of control

## Cc1c(N)nc([C@H](CC(N)=O)NC[C@H](N)C(N)=O)nc1C(=O)N[C@H](C(=O)N[C@H](C)[C@@H](O)CC(=O)N[C@H](C(=O)NC(O[C@@H]1O[C@@H](C)[C@@H](N)[C@@H](O)[C@H]1O)C(O)c1nc(-c2nc(C(=O)NCCCCN)cs2)cs1)[C@@H](C)O)[C@@H](O[C@@H]1O[C@@H](CO)[C@@H](O)[C@H](O)[C@@H]1O[C@H]1O[C@H](CO)[C@@H](O)[C@H](OC(N)=O)[C@@H]1O)c1c[nH]cn1 (some centres not stated)
dose: 2.0 mg/kg/injection, vehicle: saline
  T/C: 77 % of control

## COc1cccc2c1C(=O)c1c(O)c3c(c(O)c1C2=O)C[C@@](O)(C(=O)CO)C[C@@H]3OC1CC(N)CC(C)O1 (some centres not stated)
dose: 0.4 mg/kg/injection, vehicle: water
  T/C: 67 % of control
dose: 0.79 mg/kg/injection, vehicle: water
  T/C: 109 % of control
dose: 1.57 mg/kg/injection, vehicle: water
  T/C: 99 % of control
dose: 3.13 mg/kg/injection, vehicle: water
  T/C: 90 % of control

## OC(CBr)C(O)C(O)C(O)CBr (configuration not stated)
[3]
  T/C: 98 % of control
[4]
  T/C: 66 % of control

## C[n+]1c(-c2cccc3ccccc23)c2cc(N)ccc2c2ccccc21
[1]
  T/C: 61 % of control
[2]
  T/C: 57 % of control
